Assay results reported in ChEMBL document CHEMBL3797052 (Eur J Med Chem, 2016).

How the values were obtained:
Format in all cases: functional
[1] = Antiproliferative activity against human NCI-ADR-RES cells assessed as growth inhibition after 48 hrs by sulforhodamine B assay
[2] = Antiproliferative activity against human HCT116 cells assessed as cell growth at 10^-7 M after 48 hrs by sulforhodamine B assay; conditions: HCT-116, 48 h, read-out: Activity
[3] = tested on: CCRF-CEM; assay: Antiproliferative activity against human CCRF-CEM cells assessed as cell growth at 10^-5 M after 48 hrs by sulforhodamine B assay; conditions: read-out: Activity
[4] = Antiproliferative activity against human HL-60(TB) cells assessed as cell growth at 10^-5 M after 48 hrs by sulforhodamine B assay; conditions: HL-60, 48 h, read-out: Activity
[5] = tested on: SR; assay: Antiproliferative activity against human SR cells assessed as cell growth at 10^-5 M after 48 hrs by sulforhodamine B assay; conditions: read-out: Activity
[6] = tested on: A549; assay: Antiproliferative activity against human A549/ATCC cells assessed as cell growth at 10^-5 M after 48 hrs by sulforhodamine B assay; conditions: A549, 48 h, read-out: Activity
[7] = Antiproliferative activity against human HOP92 cells assessed as cell growth at 10^-5 M after 48 hrs by sulforhodamine B assay; conditions: HOP-92, 48 h, read-out: Activity
[8] = tested on: NCI-H460; assay: Antiproliferative activity against human NCI-H460 cells assessed as cell growth at 10^-5 M after 48 hrs by sulforhodamine B assay; conditions: NCI-H460, 48 h, read-out: Activity
[9] = Antiproliferative activity against human HCC2998 cells assessed as cell growth at 10^-5 M after 48 hrs by sulforhodamine B assay; conditions: HCC 2998, 48 h, read-out: Activity
[10] = tested on: HT-29; assay: Antiproliferative activity against human HT-29 cells assessed as cell growth at 10^-5 M after 48 hrs by sulforhodamine B assay; conditions: HT-29, 48 h, read-out: Activity
[11] = tested on: KM12; assay: Antiproliferative activity against human KM12 cells assessed as cell growth at 10^-5 M after 48 hrs by sulforhodamine B assay; conditions: KM12, 48 h, read-out: Activity
[12] = Antiproliferative activity against human LOXIMVI cells assessed as cell growth at 10^-5 M after 48 hrs by sulforhodamine B assay; conditions: LOX IMVI, read-out: Activity
[13] = tested on: MDA-MB-435; assay: Antiproliferative activity against human MDA-MB-435 cells assessed as cell growth at 10^-5 M after 48 hrs by sulforhodamine B assay; conditions: MDA-MB-435, 48 h, read-out: Activity
[14] = tested on: SK-MEL-28; assay: Antiproliferative activity against human SK-MEL-28 cells assessed as cell growth at 10^-5 M after 48 hrs by sulforhodamine B assay; conditions: SK-MEL-28, 48 h, read-out: Activity
[15] = tested on: SK-MEL-5; assay: Antiproliferative activity against human SK-MEL-5 cells assessed as cell growth at 10^-5 M after 48 hrs by sulforhodamine B assay; conditions: SK-MEL-5, 48 h, read-out: Activity
[16] = Antiproliferative activity against human UACC257 cells assessed as cell growth at 10^-5 M after 48 hrs by sulforhodamine B assay; conditions: UACC-257, 48 h, read-out: Activity
[17] = Antiproliferative activity against human UACC62 cells assessed as cell growth at 10^-5 M after 48 hrs by sulforhodamine B assay; conditions: UACC-62, 48 h, read-out: Activity
[18] = Antiproliferative activity against human IGROV1 cells assessed as cell growth at 10^-5 M after 48 hrs by sulforhodamine B assay; conditions: IGROV-1, 48 h, read-out: Activity
[19] = Antiproliferative activity against human OVCAR3 cells assessed as cell growth at 10^-5 M after 48 hrs by sulforhodamine B assay; conditions: OVCAR-3, 48 h, read-out: Activity
[20] = Antiproliferative activity against human OVCAR5 cells assessed as cell growth at 10^-5 M after 48 hrs by sulforhodamine B assay; conditions: OVCAR-5, 48 h, read-out: Activity
[21] = Antiproliferative activity against human OVCAR8 cells assessed as cell growth at 10^-5 M after 48 hrs by sulforhodamine B assay; conditions: OVCAR-8, 48 h, read-out: Activity
[22] = tested on: 786-0; assay: Antiproliferative activity against human 786-0 cells assessed as cell growth at 10^-5 M after 48 hrs by sulforhodamine B assay; conditions: 786-0, 48 h, read-out: Activity
[23] = tested on: A498; assay: Antiproliferative activity against human A498 cells assessed as cell growth at 10^-5 M after 48 hrs by sulforhodamine B assay; conditions: A498, 48 h, read-out: Activity
[24] = Antiproliferative activity against human Caki1 cells assessed as cell growth at 10^-5 M after 48 hrs by sulforhodamine B assay; conditions: CAKI-1, 48 h, read-out: Activity
[25] = Antiproliferative activity against human RXF393 cells assessed as cell growth at 10^-5 M after 48 hrs by sulforhodamine B assay; conditions: RXF 393, 48 h, read-out: Activity
[26] = Antiproliferative activity against human TK10 cells assessed as cell growth at 10^-5 M after 48 hrs by sulforhodamine B assay; conditions: TK-10, 48 h, read-out: Activity
[27] = tested on: MCF7; assay: Antiproliferative activity against human MCF7 cells assessed as cell growth at 10^-5 M after 48 hrs by sulforhodamine B assay; conditions: MCF7, 48 h, read-out: Activity
[28] = tested on: MDA-MB-231; assay: Antiproliferative activity against human MDA-MB-231 cells assessed as cell growth at 10^-5 M after 48 hrs by sulforhodamine B assay; conditions: MDA-MB-231, 48 h, read-out: Activity
[29] = Antiproliferative activity against human SNB19 cells assessed as growth inhibition after 48 hrs by sulforhodamine B assay; conditions: SNB-19, 48 h
[30] = tested on: NCI-H226; assay: Antiproliferative activity against human NCI-H226 cells assessed as growth inhibition after 48 hrs by sulforhodamine B assay; conditions: NCI-H226, 48 h; for CC50: read-out: LC50 (the source's name)
[31] = Antiproliferative activity against human SNB75 cells assessed as cell growth at 10^-6 M after 48 hrs by sulforhodamine B assay; conditions: SNB-75, 48 h, read-out: Activity
[32] = tested on: T47D; assay: Antiproliferative activity against human T47D cells assessed as cell growth at 10^-5 M after 48 hrs by sulforhodamine B assay; conditions: read-out: Activity
[33] = Antiproliferative activity against human LOXIMVI cells assessed as cell growth at 10^-4 M after 48 hrs by sulforhodamine B assay; conditions: LOX IMVI, read-out: Activity
[34] = tested on: Malme-3M; assay: Antiproliferative activity against human MALME-3M cells assessed as cell growth at 10^-4 M after 48 hrs by sulforhodamine B assay; conditions: read-out: Activity
[35] = Antiproliferative activity against human Caki1 cells assessed as cell growth at 10^-6 M after 48 hrs by sulforhodamine B assay; conditions: CAKI-1, 48 h, read-out: Activity
[36] = Antiproliferative activity against human UACC62 cells assessed as cell growth at 10^-4 M after 48 hrs by sulforhodamine B assay; conditions: UACC-62, 48 h, read-out: Activity

CNC(=O)c1cc(Oc2ccc3nc(NC(=O)c4cc(C(F)(F)F)cc(C(F)(F)F)c4)sc3c2)ccn1
GI50 [1]: 3.67 µM
LC50 (concentration killing 50% of cells) [1]: > 100 µM
TGI [1]: 19.1 µM
growth at 0.1 µM [2]: 104%
growth at 10 µM [3]: 13%
growth at 10 µM [4]: -47%
growth at 10 µM [5]: 5%
growth at 10 µM [6]: 13%
growth at 10 µM [7]: -11%
growth at 10 µM [8]: 14%
growth at 10 µM [9]: 39%
growth at 10 µM [10]: 15%
growth at 10 µM [11]: 2%
growth at 10 µM [12]: 11%
growth at 10 µM [13]: 7%
growth at 10 µM [14]: 22%
growth at 10 µM [15]: -66%
growth at 10 µM [16]: -10%
growth at 10 µM [17]: 5%
growth at 10 µM [18]: 27%
growth at 10 µM [19]: -19%
growth at 10 µM [20]: 32%
growth at 10 µM [21]: 8%
growth at 10 µM [22]: -9%
growth at 10 µM [23]: -35%
growth at 10 µM [24]: 2%
growth at 10 µM [25]: -8%
growth at 10 µM [26]: 8%
growth at 10 µM [27]: 17%
growth at 10 µM [28]: -25%
GI50 [29]: 3.76 µM
LC50 (50% lethal concentration) [29]: > 100 µM
TGI [29]: 22.8 µM
GI50 [30]: 4.15 µM
TGI [30]: 17.4 µM
CC50 [30]: 76.2 µM
growth at 1 µM [31]: 89%
growth at 10 µM [32]: -4%
growth at 100 µM [33]: -51%
growth at 100 µM [34]: -38%
growth at 1 µM [35]: 88%
growth at 100 µM [36]: -56%

CNC(=O)c1cc(Oc2ccc3nc(NC(=O)Nc4ccc(Cl)c(Cl)c4)sc3c2)ccn1
GI50 [1]: 2.3 µM
LC50 (concentration killing 50% of cells) [1]: > 100 µM
TGI [1]: 5.09 µM
growth at 0.1 µM [2]: 97%
growth at 10 µM [3]: 76%
growth at 10 µM [4]: 95%
growth at 10 µM [5]: 39%
growth at 10 µM [6]: -62%
growth at 10 µM [7]: -44%
growth at 10 µM [8]: -40%
growth at 10 µM [9]: 29%
growth at 10 µM [10]: -61%
growth at 10 µM [11]: 5%
growth at 10 µM [12]: -79%
growth at 10 µM [13]: -47%
growth at 10 µM [14]: -72%
growth at 10 µM [15]: -32%
growth at 10 µM [16]: -23%
growth at 10 µM [17]: -11%
growth at 10 µM [18]: -20%
growth at 10 µM [19]: -37%
growth at 10 µM [21]: -40%
growth at 10 µM [22]: -41%
growth at 10 µM [23]: -25%
growth at 10 µM [24]: -25%
growth at 10 µM [25]: -74%
growth at 10 µM [26]: -4%
growth at 10 µM [27]: 4%
growth at 10 µM [28]: -20%
GI50 [29]: 1.99 µM
LC50 (50% lethal concentration) [29]: 7.95 µM
TGI [29]: 3.98 µM
GI50 [30]: 2.28 µM
TGI [30]: 4.58 µM
CC50 [30]: 9.21 µM
growth at 1 µM [31]: 87%
growth at 10 µM [32]: -26%
growth at 100 µM [33]: -62%
growth at 100 µM [34]: -75%
growth at 1 µM [35]: 98%
growth at 100 µM [36]: -20%

CNC(=O)c1cc(Oc2ccc3nc(NC(=O)Nc4ccc(Cl)c(C(F)(F)F)c4)sc3c2)ccn1
GI50 [1]: 2.43 µM
LC50 (concentration killing 50% of cells) [1]: > 100 µM
growth at 0.1 µM [2]: 99%
growth at 10 µM [3]: 22%
growth at 10 µM [4]: 52%
growth at 10 µM [5]: -1%
growth at 10 µM [6]: -50%
growth at 10 µM [7]: -54%
growth at 10 µM [8]: -57%
growth at 10 µM [9]: 20%
growth at 10 µM [10]: 5%
growth at 10 µM [11]: 20%
growth at 10 µM [13]: -36%
growth at 10 µM [14]: -68%
growth at 10 µM [15]: -62%
growth at 10 µM [16]: 14%
growth at 10 µM [17]: -22%
growth at 10 µM [18]: -36%
growth at 10 µM [19]: -70%
growth at 10 µM [20]: -13%
growth at 10 µM [21]: -40%
growth at 10 µM [22]: -64%
growth at 10 µM [23]: 4%
growth at 10 µM [24]: -16%
growth at 10 µM [25]: -45%
growth at 10 µM [26]: -55%
growth at 10 µM [27]: -3%
growth at 10 µM [28]: -38%
GI50 [29]: 2.77 µM
LC50 (50% lethal concentration) [29]: > 100 µM
TGI [29]: 10.2 µM
GI50 [30]: 2.69 µM
TGI [30]: 7.47 µM
CC50 [30]: > 100 µM
growth at 1 µM [31]: 78%
growth at 10 µM [32]: -34%
growth at 100 µM [33]: 11%
growth at 100 µM [34]: -48%
growth at 1 µM [35]: 95%
growth at 100 µM [36]: 26%

CNC(=O)c1cc(Oc2ccc3nc(NC(=O)Nc4cc(C(F)(F)F)cc(C(F)(F)F)c4)sc3c2)ccn1
GI50 [1]: 1.27 µM
TGI [1]: 3.19 µM
growth at 0.1 µM [2]: 105%
growth at 10 µM [3]: -16%
growth at 10 µM [4]: -46%
growth at 10 µM [5]: -47%
growth at 10 µM [6]: -91%
growth at 10 µM [7]: -69%
growth at 10 µM [8]: -75%
growth at 10 µM [9]: -64%
growth at 10 µM [10]: -80%
growth at 10 µM [11]: -58%
growth at 10 µM [12]: -93%
growth at 10 µM [13]: -69%
growth at 10 µM [14]: -75%
growth at 10 µM [15]: -76%
growth at 10 µM [16]: -82%
growth at 10 µM [17]: -77%
growth at 10 µM [18]: -62%
growth at 10 µM [19]: -93%
growth at 10 µM [20]: -64%
growth at 10 µM [21]: -93%
growth at 10 µM [22]: -89%
growth at 10 µM [23]: -79%
growth at 10 µM [24]: -77%
growth at 10 µM [25]: -69%
growth at 10 µM [26]: -79%
growth at 10 µM [27]: -59%
growth at 10 µM [28]: -64%
GI50 [29]: 1.34 µM
LC50 (50% lethal concentration) [29]: > 100 µM
TGI [29]: 4.43 µM
GI50 [30]: 1.45 µM
TGI [30]: 3.57 µM
CC50 [30]: 8.79 µM
growth at 1 µM [31]: 50%
growth at 10 µM [32]: -56%
growth at 100 µM [33]: -62%
growth at 100 µM [34]: -76%
growth at 1 µM [35]: 58%
growth at 100 µM [36]: -73%
